Where two headings read alike, the source gives them in different places.
Assays:
benzodiazepine receptor [1] = details: in vitro; cited from earlier work
benzodiazepine receptor [2] = experiment: In vitro affinity for the benzodiazepine receptor on rat cortex membrane; assay type: binding
Description: A--In Vitro Tests on Cortex Membrane
The compounds of Examples 1 to 14 were tested on rat cortex membrane in order to determine their affinity for the benzodiazepine receptor.

[3] = tested on: GABA receptor/benzodiazepine receptor/chloride channel complexes; experiment: Electrophysiological test on Xenopus oocyte (injected with chicken optical lobe mRNA), pharmacological profile; assay type: cell-based; details: for change of the potential difference (PD) of the oocyte: 10^-6 M, in 10^-5 M GABA bath; for pharmacological profile at the benzodiazepine receptor: Xenopus oocyte
Source text: B--Pharmacological Property of the Compound of Example 1 Determination of the Pharmacological Profile
This study consists of an electrophysiological test on Xenopus oocyte. The cells of chicken optical lobes fortuitously have a good response to GABA. The total RNAs are extracted therefrom and passed through an oligo(dT) affinity column, thus making it possible to separate the crude messenger RNAs therefrom, because the latter have a poly(A) end tail which will combine by complementarity with the oligo(dT) residues of the column. These messenger RNAs will then be injected into a Xenopus oocyte, which is only a one and only cell. These oocytes will then be incubated and, in two days, the messenger RNAs will be expressed and will thus, by virtue of the cell machinery of the oocyte, have produced GABA receptor/benzodiazepine receptor/chloride channel complexes. These large protein entities will then migrate in the cell and will reach the membrane, thus making it possible for this receptor and the transmembrane ion channel which is combined with it to take its place.
The oocyte is then placed in a 10^-5 M GABA bath in Ringer solution and two microelectrodes A and B are introduced therein, a third microelectrode being placed outside the cell to act as reference. Microelectrode A will be used to measure the potential difference (PD) between the interior and the exterior of the oocyte. A PD of 60 mV is imposed on the oocyte and the microelectrode B will be used to maintain this desired PD.
By perfusing an agonist such as diazepam, the latter and the GABA present in the medium will exert an allosteric effect at the level of the receptor with, as corollary, opening of the ion channel. There will therefore be entry of chloride into the oocyte and the PD will greatly increase. On the other hand, an inverse agonist such as β-CCM will cause a reduction in the binding of the GABA to the receptor with, as consequence, a reduction in the time of opening of the chloride channel and a lower PD.
An antagonist will occupy the binding site of the benzodiazepine receptor but will have no effect on the binding of the GABA. The opening of the chloride channel will therefore not be disturbed and the PD will not vary.

[4] = tested on: mice belonging to the ABP/Le strain; experiment: In vivo convulsant properties in ABP/Le mice; design: species or system mouse; details: 20 mg/kg intraperitoneally, 14 mice, observation after 30 minutes
Description: Compound 1 was tested first for its convulsant properties. The test was carried out on 14 mice (5 males and 9 females) aged two months belonging to the ABP/Le strain. This particular strain is very sensitive to convulsions induced by β-carbolines. Compound 1 was administered intraperitoneally at a dose of 20 mg/kg and observation took place after 30 minutes. […] The compound is therefore not convulsant.

female Swiss mice = experiment: Passive avoidance test with learning in a single test (memory); assay type: in vivo, mouse; details: 20 mg/kg intraperitoneal
Description: Compound 1 was then tested on learning. This test, passive avoidance with learning in a single test, was carried out on 30 female Swiss mice aged two months. Compound 1 was administered to 15 mice at a dose of 20 mg/kg, the other 15 receiving an injection of physiological serum.
The equipment consists of a white box connected to a black box by a door. The white box is lit by a 100 W lamp placed at a distance of 25 cm and the black box, into which the mouse will spontaneously go because she feels safe in the darkness, contains an electrified metal floor. The boxes are coated with the smell of mice by an animal placed inside before each of the two series of 15 mice. […]
Ten minutes before learning, the marked mice receive an intraperitoneal injection of physiological serum or of Compound 1. […] The mice were then placed one by one in the illuminated white box and the arrival time in the black box is recorded. […]
After 24 hours, the avoidance test takes place: the mouse is placed in the white box and whether or not the mouse enters the black box in three minutes is recorded without any electrical shock being caused. If the mouse enters the black box in less than three minutes, the molecule tested has not improved the acquisition of the information "black box=electric shock" but if the time recorded is greater than three minutes, the molecule is assumed to have acted.

man = details: cited from earlier work
benzodiazepine receptor [5] = details: cited from earlier work
[6] = in vivo (anxiolytic, anticonvulsant, and the like); cited from earlier work
[7] = target: central receptors of benzodiazepines; details: in vitro, rat brain; read-out: IC50 at central benzodiazepine receptors; cited from earlier work
mice = details: facilitating convulsions caused by other agents such as pentylenetetrazole; cited from earlier work
[8] = in vivo; cited from earlier work
[9] = in vivo; cited from earlier work; remark: listed apart in the source

For `CCOC(=O)c1cc2cc(C(=O)OCC)[nH]c2cn1` [2,5-dicarbethoxy-6-azaindole], the IC50 (benzodiazepine receptor [1]) is given as 84000 nM.

With `COC(=O)c1cc2c(COCc3ccccc3)c[nH]c2cn1` [Example 1, Methyl 3-Benzyloxymethyl-6-Azaindole-5-Carboxylate] the IC50 (benzodiazepine receptor [2]) was 750 nM, the “change of the potential difference (PD) of the oocyte” value (“change of the potential difference” for short) [3] was “slight reduction of the PD” and the “pharmacological profile at the benzodiazepine receptor” value [3] was “partial inverse agonist”. For the same compound, the convulsions [4] was “None of the mice showed the least convulsion”, the “memory-enhancing effect during the passive avoidance test” value (female Swiss mice) was “memory-enhancing effect of the compound during the passive avoidance test with learning in a single test has therefore been revealed” and the “animals treated with the molecule that learnt to avoid the electric shock” value (female Swiss mice; 24 hours) was 75%.

In the case of `COCc1c[nH]c2cnc(C(=O)OC)cc12` [Example 2], the IC50 (benzodiazepine receptor [2]) is reported as 1500 nM.

`COC(=O)c1cc2c(COCc3ccccc3F)c[nH]c2cn1` [Example 3] gave an IC50 (benzodiazepine receptor [2]) of 65 nM.

Work on `COC(=O)c1cc2c(COCc3cccc(F)c3)c[nH]c2cn1` [Example 4] yielded an IC50 (benzodiazepine receptor [2]) of 100 nM.

For `COC(=O)c1cc2c(COCc3ccc(F)cc3)c[nH]c2cn1` [Example 5], the IC50 (benzodiazepine receptor [2]) was 75 nM.

With `COC(=O)c1cc2c(COCc3ccccc3[N+](=O)[O-])c[nH]c2cn1` [Example 6] the IC50 (benzodiazepine receptor [2]) was 1200 nM.

In the case of `COC(=O)c1cc2c(COCc3cccc([N+](=O)[O-])c3)c[nH]c2cn1` [Example 7], the IC50 (benzodiazepine receptor [2]) is reported as 1300 nM.

With `COC(=O)c1cc2c(COCc3ccc([N+](=O)[O-])cc3)c[nH]c2cn1` [Example 8] the IC50 (benzodiazepine receptor [2]) was 300 nM.

In the case of `COC(=O)c1cc2c(COCc3cccc(OC)c3)c[nH]c2cn1` [Example 9], the IC50 (benzodiazepine receptor [2]) is reported as 10000 nM.

Compound `COC(=O)c1cc2c(COCCc3ccccc3)c[nH]c2cn1` [Example 10] has an IC50 (benzodiazepine receptor [2]) of 8 nM.

Compound `COC(=O)c1cc2c(COCC=Cc3ccccc3)c[nH]c2cn1` [Example 11] has an IC50 (benzodiazepine receptor [2]) of 150 nM.

Compound `O=C(Nc1ccccc1C(=O)O)c1cc2cc[nH]c2cn1` [Example 12, 5-Phenylamido-6-Azaindole-2'-Carboxylic Acid] has an IC50 (benzodiazepine receptor [2]) of 300 nM.

In the case of `O=C(Nc1ccccc1)c1cc2cc[nH]c2cn1` [Example 13], the IC50 (benzodiazepine receptor [2]) is reported as 7000 nM.

Work on `O=C(O)c1cccc(NC(=O)c2cc3cc[nH]c3cn2)c1` [Example 14] yielded an IC50 (benzodiazepine receptor [2]) of 5500 nM.

Work on `O=C(O)c1ccc(NC(=O)c2cc3cc[nH]c3cn2)cc1` [Example 15] yielded an IC50 (benzodiazepine receptor [2]) of 2300 nM.

In the case of `CCOC(=O)c1ncn2c1CN(C)C(=O)c1cc(F)ccc1-2` [Flumazenil], the “memory-enhancing properties in man” value (man) is given as “memory-enhancing properties were revealed” and the “functional class at the benzodiazepine receptor” value (“functional class” for short) (benzodiazepine receptor [5]) is given as “antagonists of the benzodiazepine receptor”.

For `CCOC(=O)c1ncc2[nH]c3cccc(OCc4ccccc4)c3c2c1COC` [ZK 91296], the “pharmacological profile at the benzodiazepine receptor” value [3] is listed as “partial agonist” and the “in vivo properties compared with diazepam” value [6] is listed as “properties analogous to those of diazepam in vivo (anxiolytic, anticonvulsant, and the like)”.

In the case of `CCOC(=O)c1ncc2[nH]c3ccc(OCc4ccccc4)cc3c2c1COC` [ZK 93423], the “in vivo properties compared with diazepam” value [6] is listed as “properties analogous to those of diazepam in vivo (anxiolytic, anticonvulsant, and the like)”.

For `CCOC(=O)c1ncc2[nH]c3cccc(OC(C)C)c3c2c1C` [ZK 93426], the “memory-enhancing properties in man” value (man) is given as “memory-enhancing properties were revealed” and the “functional class” value (benzodiazepine receptor [5]) is given as “antagonists of the benzodiazepine receptor”.

For `CN1C(=O)CN=C(c2ccccc2)c2cc(Cl)ccc21` [diazepam], the “change of the potential difference” value [3] was “great increase”.

For `CCOC(=O)c1cc2c(cn1)[nH]c1ccccc12` [β-CCE, ethyl ester of β-carboline-3-carboxylic acid], the IC50 [7] is listed as 4 nM and the proconvulsant effect (mice) is listed as “proconvulsant in mice”.

For `COC(=O)c1cc2c(cn1)[nH]c1ccccc12` [β-CCM], the “change of the potential difference” value [3] is listed as “significant reduction”, the “effect on learning and memory” value [8] is listed as “positive effect on learning and memory” and the convulsant activity [9] is listed as “highly convulsant activity”. For the same compound, the “functional class” value (benzodiazepine receptor [5]) was “inverse agonists of the benzodiazepine receptor”.

Reference: patent publication US5484793A, “Compounds derived from 6-azaindoles as ligands of the benzodiazepine receptor and medicaments containing them” (Centre National de la Recherche Scientifique (CNRS), priority 1991, dated 1996)
